Experimental data taken from US10980776B2, “Synergistic pharmaceutical combination for the treatment of squamous cell carcinoma of head and neck” (Piramal Enterprises Limited, priority 2011, dated 2021).

Key:
SCC-25 cells = assay: CCK-8 cytotoxicity assay, determination of inhibitory concentrations in SCC-25 cells; type: cell-based; conditions: SCC-25 cells, 72 hr
Experimental: (§1) Logarithmically growing cells were plated at a density of 3×10^3 cells/well and allowed to recover overnight. […] After 72 hours, cell toxicity was determined by CCK-8 (Cell Counting Kit-8) reagent (Dojindo Molecular Technologies, Japan); WST-8 (2-(2-methoxy-4-nitrophenyl)-3-(4-nitrophenyl)-5-(2, 4-disulfophenyl)]-2H-tetrazolium, monosodium salt) assay. In accordance with the manufacturer's instructions, 5 μl/well CCK-8 reagent was added and plates were incubated for 2 hours. The toxicity was determined by measuring the absorbance on Tecan Sapphire multi-fluorescence micro-plate reader (Tecan, Germany, GmbH) at a wavelength of 450 nm corrected to 650 nm and normalized to controls.
(§2) CCK-8 allows convenient assays using Dojindo's tetrazolium salt, WST [8[(2-(2-methoxy-4-nitrophenyl)-3-(4-nitrophenyl)-5-(2,4-disulfophenyl)-2H-tetrazolium, monosodium salt], which produces a water-soluble formazan dye upon bioreduction in the presence of an electron carrier, 1-Methoxy PMS. CCK-8 solution is added directly to the cells; no pre-mixing of components is required. CCK-8 is a sensitive nonradioactive colorimetric assay for determining the number of viable cells in cell proliferation and cytotoxicity assays. WST-8 is bio-reduced by cellular dehydrogenases to an orange formazan product that is soluble in tissue culture medium. The amount of formazan produced is directly proportional to the number of living cells. The detection sensitivity of cell proliferation assays using WST-8 is higher than assays using the other tetrazolium salts such as MIT, XTT, MTS or WST-1. Optical Density was determined at measurement wavelength of 450 nm and reference wave length of 630 nm.
The cells were seeded at a density of 3000 cells/well, in a 200 μL in tissue culture grade 96 well plate and were allowed to recover for 24 hrs in a humidified 5%±0.2 CO2 incubator at 37° C.±0.5° C. […] The final DMSO concentration was 0.5% in wells. Plates were incubated for 48 hrs in humidified 5%±0.2 CO2 incubator at 37±0.5° C. After 48 hrs the plates were removed from CO2 incubator and 5 μL of Cell counting Kit (CCK-8) per well was added. The same plate was kept at 37° C. for 3 hrs, and allowed to come to room temperature. The absorbance at a wavelength of 450 nm was read on Tecan safire reader. The percent cytotoxicity was calculated using the following formula.

Detroit-562 cells = assay: Combination studies (single and sequential combination dosing), % cytotoxicity in Detroit-562 cells; conditions: Homo sapiens, Detroit 562, Detroit-562; for cytotoxicity at 14.1 µM: single agent at IC50 (compound B 14.1 μM); for cytotoxicity at 25.2 µM: single agent at IC70 (compound B 25.2 μM)
Experimental: as §1, §2
(§3) Sorafenib in the following dose of final concentration 1.8 μM and compound A in the following doses of final concentration 0.5 μM, 1.3 μM and 12.1 μM were analyzed in single dose and in all possible combinations of the dose range for the two anticancer agents mentioned above. The sequence of treatment is as follows; Detroit-562 cells were treated with sorafenib for 0 to 24 hrs. At the end of 24 hrs the cells were washed two times with plain MEM medium. Fresh MEM with 10% serum (200 μL/well) was added, followed by treatment with compound A from 24 hrs to 96 hrs.
as §3, with “compound B” for “compound A”, “concentration 2.7” for “concentration 0.5”, “μM, 14.1” for “μM, 1.3”, “and 25.2” for “and 12.1”, “follows; the” for “follows;”
as §3, with “Lapatinib” for “Sorafenib”, “1” for “1.8”, “follows; the” for “follows;”, “lapatinib” for “sorafenib”
Lapatinib in the following dose of final concentration 1.0 μM and compound B in the following doses of final concentration 2.7 μM, 14.1 μM and 25.2 μM were analyzed in single dose and in all possible combinations of the dose range for the two drugs mentioned above. The sequence of treatment is as follows; the Detroit-562 cells were treated with lapatinib for 0 to 24 hrs. At the end of 24 hrs the cells were washed two times with plain MEM medium. Fresh MEM with 10% serum (200 μL/well) was added, followed by treatment with compound A from 24 hrs to 96 hrs.

## CN1CC[C@@H](c2c(O)cc(O)c3c(=O)cc(-c4ccc(C(F)(F)F)cc4Cl)oc23)[C@@H]1CO.Cl [Compound B, (+)-trans-2-(2-chloro-4-trifluoromethyl-phenyl)-5,7-dihydroxy-8-(2-hydroxymethyl-1-methyl-pyrrolidin-3-yl)-chromen-4-one hydrochloride]
SCC-25 cells; Homo sapiens
  IC90: 41800 nM
SCC-25 cells; Homo sapiens, read-out: IC50
  IC50: 1100 nM
SCC-25 cells
  IC30: 200 nM
  IC70: 4800 nM
Detroit-562 cells; single agent at IC30 (lapatinib 1.0 μM; compound B 2.7 μM)
  cytotoxicity at 2.7 µM: 15%
Detroit-562 cells; single agent at IC30 (sorafenib 1.8 μM; compound B 2.7 μM)
  cytotoxicity at 2.7 µM: 15%
Detroit-562 cells; lapatinib study
  cytotoxicity at 14.1 µM: 18%
  cytotoxicity at 25.2 µM: 30%
Detroit-562 cells; sorafenib study
  cytotoxicity at 14.1 µM: 19%
  cytotoxicity at 25.2 µM: 26%
